According to PubChem BioAssay AID435027 (Sanford-Burnham Center for Chemical Genomics, 2010):

Target: Tyrosine-protein phosphatase non-receptor type 22 (Homo sapiens) (UniProt Q9Y2R2)
Assay: LYP phosphatase inhibitor potency, dose response, biochemical, pCAP substrate, fluorescence intensity (AID 435027)
Details: recombinant LYP

Sequence of Tyrosine-protein phosphatase non-receptor type 22 (Homo sapiens) (Q9Y2R2 whole entry, looked up): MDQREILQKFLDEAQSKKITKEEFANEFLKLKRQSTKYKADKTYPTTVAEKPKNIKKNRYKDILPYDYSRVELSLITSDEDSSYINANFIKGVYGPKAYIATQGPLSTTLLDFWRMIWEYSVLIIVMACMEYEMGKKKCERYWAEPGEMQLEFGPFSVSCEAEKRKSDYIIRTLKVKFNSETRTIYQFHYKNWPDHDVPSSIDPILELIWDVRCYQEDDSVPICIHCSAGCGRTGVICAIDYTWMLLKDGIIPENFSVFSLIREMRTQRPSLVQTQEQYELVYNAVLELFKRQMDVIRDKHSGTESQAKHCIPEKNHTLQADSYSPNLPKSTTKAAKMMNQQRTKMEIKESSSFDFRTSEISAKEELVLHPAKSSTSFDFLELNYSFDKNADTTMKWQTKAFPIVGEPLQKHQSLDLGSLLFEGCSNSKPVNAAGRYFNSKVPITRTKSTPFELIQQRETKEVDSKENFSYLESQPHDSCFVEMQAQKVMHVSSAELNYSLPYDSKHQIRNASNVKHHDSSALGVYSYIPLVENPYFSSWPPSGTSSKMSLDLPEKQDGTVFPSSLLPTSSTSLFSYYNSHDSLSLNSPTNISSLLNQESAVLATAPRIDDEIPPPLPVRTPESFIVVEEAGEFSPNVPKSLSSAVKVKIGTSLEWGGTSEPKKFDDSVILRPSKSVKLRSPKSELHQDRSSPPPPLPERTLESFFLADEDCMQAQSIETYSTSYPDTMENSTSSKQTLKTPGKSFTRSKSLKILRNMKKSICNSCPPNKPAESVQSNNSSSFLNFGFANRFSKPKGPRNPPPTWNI

Row | SMILES | IC50
1 | O=C(O)CCCN1C(=O)/C(=C/c2ccc(-c3nc4ccccc4s3)o2)SC1=S | 4.76 µM
2 | Cc1ccc(/C=C/c2nc3sc(C(=O)O)c(C)c3c(=O)[nH]2)cc1[N+](=O)[O-] | 4.58 µM
